In patent publication EP4111863A1, “PHOSPHORUS USE EFFICIENCY ENHANCERS AS PLANT GROWTH PROMOTORS” (EuroChem Antwerpen, priority 2021, dated 2023):

Experiments:
Arabidopsis [1] = test: Arabidopsis vertical plate growth assay (primary root length, shoot biomass); type: in vivo, Arabidopsis thaliana; details: low phosphate; for Primary root length (in % versus control): Table 2, versus control without compound
Method: (§1) All Arabidopsis plant experiments were performed using the Arabidopsis thaliana Columbia-0 background. The Arabidopsis pSPX1::GUS line is described in the […] 2008, 54: 965-975. For rice, the cultivar Nipponbare was used. For maize, the cultivars DKC 2931 and B104 were used for regular pot experiments and sand-based pot experiments, respectively. For soybean, the cultivar Primus was used. […] The medium was solidified due to the addition of 0,6% Gelrite, unless stated otherwise. In case of vertical plates (root length and root hair measurements), the medium was supplied with 0.5% of sucrose and 1 µM (low phosphate, 1 µM KH2PO4, 9.9 mM KCI), 10 µM (low phosphate 10 µM KH2PO4, 9.9 mM KCI) or 1.25 mM KH2PO4 (high phosphate). Arabidopsis seeds were stratified for 2 days at 4 °C before germination. Seedlings were germinated in climate-controlled growth chambers at 22 °C under continuous light (100 µmol m^-2 s^-1). Husked rice seeds were germinated on wetted Whatman paper for 2 days at 37 °C and then transferred to Sterivent boxes or square Petri dishes with solid medium. Maize and soybean seeds were wetted 24 hours at room temperature prior to sowing in pots.
Arabidopsis primary root growth experiments were done on MS1/2 on vertical standing plates and roots were measured 11 days after germination. Roots were imaged using a flatbed scanner (EPSON Expression 11000XL) and root length was measured using ImageJ software. Arabidopsis shoot biomass was determined in 11 days after germination and growth on vertical standing plates with modMS. Arabidopsis leaf area was measured 21 days after germination on horizontal plates with modMS medium. Plates were scanned from the top using a flatbed scanner (EPSON Expression 11000XL) and the visible leaf area was measured using ImageJ software. Rice plate experiments used vertically standing Petri dishes containing MS1/2 medium (low phosphate - 0.001 mM) solidified with 0.8% washed agar. Plant height was measured 11 days after germination. Rice box experiments used modMS medium and a low phosphate condition of 0.025 mM phosphate. Plant height was measured 13 days after germination. All growth experiments occurred with 10 µM of compound and in low phosphate conditions, unless stated otherwise. Controls always received the same DMSO concentration.

Arabidopsis [2] = test: Arabidopsis pot experiment; type: in vivo, Arabidopsis thaliana; details: low phosphate, 10 µM, 4 weeks of growth
Method: (§2) All Arabidopsis plant experiments were performed using the Arabidopsis thaliana Columbia-0 background. The Arabidopsis pSPX1::GUS line is described in the […] 2008, 54: 965-975. For rice, the cultivar Nipponbare was used. For maize, the cultivars DKC 2931 and B104 were used for regular pot experiments and sand-based pot experiments, respectively. For soybean, the cultivar Primus was used. […] The medium was solidified due to the addition of 0,6% Gelrite, unless stated otherwise. […]
(§3) Regular Arabidopsis and maize pot experiments used an unfertilized potting soil, which was supplemented at the start of the experiment with 50 ml H2O containing 0.25 g/l NH4NO3 and 0.44 g/l (high phosphate) or no (maize and soybean) or 0.11 g/l KH2PO (Arabidopsis) for low phosphate conditions. […] Compound concentration was 10 µM, calculated based on the total water content after watering, and was added at the start of the experiment (Arabidopsis) or once a week (maize). […] All parameters in the sand experiment, except the rate of leaf 4 (measured the first 4 days after emergence), were measured 19 days after sowing. Measurements in the pot experiments with potting soil were done after 4 weeks of growth, except for leaf 5, which was measured at 26 days. s. […]

SPX1 = test: Chemical activity assessment: SPX1 phosphate starvation biomarker, pSPX1::GUS reporter line, GUS stained area; type: in vivo, Arabidopsis thaliana; details: for GUS (SPX1) stained area normalized to the number of seeds (pixels): 50 µM compound, low phosphate modMS liquid medium, 7 days after germination, low phosphate control average of the same plate
Summary of the method: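 Arabidopsis Col-0 pSPX1::GUS seedlings grown in 96-well plates in low-phosphate liquid modMS with 1% sucrose, compounds at 50 µM final (1% DMSO). At 7 days after germination, GUS stained 1.5 h at 37 °C and blue signal area measured from scans. Wells with leaf area 50% or less of control were omitted.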

Arabidopsis [3] = test: Arabidopsis horizontal plate growth assay (leaf area); type: in vivo, Arabidopsis thaliana; details: 10 µM, 21 days after germination
Method: as §2
(§4) Arabidopsis primary root growth experiments were done on MS1/2 on vertical standing plates and roots were measured 11 days after germination. Roots were imaged using a flatbed scanner (EPSON Expression 11000XL) and root length was measured using ImageJ software. Arabidopsis shoot biomass was determined in 11 days after germination and growth on vertical standing plates with modMS. Arabidopsis leaf area was measured 21 days after germination on horizontal plates with modMS medium. Plates were scanned from the top using a flatbed scanner (EPSON Expression 11000XL) and the visible leaf area was measured using ImageJ software. […] Plant height was measured 11 days after germination. […] Plant height was measured 13 days after germination. […]

Maize [4] = test: Sand-based maize pot experiment; type: in vivo; details: low phosphate, 10 µM
Method: as §1
as §3, with “conditions. For the sand-based maize pot experiment, sand was supplemented with 50 ml H2O containing 0.25 g/l NH4NO3 and 0.38 g/l (high phosphate) or 0.02 g/l (low phosphate) KH2PO4.” for “conditions.”

Maize [5] = test: Regular maize pot experiment (potting soil); type: in vivo; details: low phosphate, 10 µM once a week
Method: as §1
as §3, with “conditions. For the sand-based maize pot experiment, sand was supplemented with 50 ml H2O containing 0.25 g/l NH4NO3 and 0.38 g/l (high phosphate) or 0.02 g/l (low phosphate) KH2PO4.” for “conditions.”

Maize [6] = test: Long term maize pot experiment, cultivar B104 (Phenovision platform); type: in vivo
Method: (§5) Regular Arabidopsis and maize pot experiments used an unfertilized potting soil, which was supplemented at the start of the experiment with 50 ml H2O containing 0.25 g/l NH4NO3 and 0.44 g/l (high phosphate) or no (maize and soybean) or 0.11 g/l KH2PO (Arabidopsis) for low phosphate conditions. For the sand-based maize pot experiment, sand was supplemented with 50 ml H2O containing 0.25 g/l NH4NO3 and 0.38 g/l (high phosphate) or 0.02 g/l (low phosphate) KH2PO4. Potassium was balanced via addition of KCI. Compound concentration was 10 µM, calculated based on the total water content after watering, and was added at the start of the experiment (Arabidopsis) or once a week (maize). Indexed chlorophyll contents were received via a SPAD 502 Plus Chlorophyll Meter. All parameters in the sand experiment, except the rate of leaf 4 (measured the first 4 days after emergence), were measured 19 days after sowing. Measurements in the pot experiments with potting soil were done after 4 weeks of growth, except for leaf 5, which was measured at 26 days. s. The long term maize pot experiment was performed on the automated Phenovision platform (see Mertens et al, 2021, 20 https.l/doi.org/10.3389/fpls.2021.640914) with maize cultivars B104 and DKC2931. End point measurements occurred after 90 days (B104) or 70 days (DKC2931). Plants were grown on an unfertilized potting soil, which was fertilized bi-weekly with 50 mL modified Hoagland solution (2.5 x concentrated; but with 0.25 mM KH2PO4.).

Rice [7] = test: Rice box experiment; type: in vivo; details: low phosphate 0.025 mM, 10 µM, 13 days after germination
Method: as §2, §4

Rice [8] = test: Rice plate experiment; type: in vivo; details: low phosphate 0.001 mM, 10 µM, 11 days after germination
Method: as §2, §4

[9] = system: Arabidopsis, rice, soybean and maize; test: Growth experiments in different growing systems and plant species (summary statement); type: in vivo; details: result in words; plate, box or pot experiments
Method: as §2, §4

Maize [10] = test: Long term maize pot experiment, cultivar DKC2931 (Phenovision platform); type: in vivo; details: DKC2931, 70 days
Method: as §5

[11] = Arabidopsis vertical plate, 10 µM, 11 days after germination
[12] = Maize pot long term, B104, 90 days

Compound: Cc1nc(N2CCOCC2)sc1C(=O)NN [Compound 4.1]
- Primary root length (in % versus control) (Arabidopsis [1]): 118%

Compound: Cc1nc(N2CCOCC2)sc1CNCC1CN(C)CCO1 (stereo not shown) [Compound 4]
- Rosette size (cm^2) (Arabidopsis [2]): 19 cm^2
- GUS (SPX1) stained area normalized to the number of seeds (pixels) (SPX1; Table 2): 9 pixels
- suppression of the SPX1 biomarker (blue GUS staining) (SPX1; result in words, 7 days of growth in low phosphate conditions): practically completely suppressed
- Leaf area (mm^2) (Arabidopsis [3]; low phosphate): 91 mm^2
- Leaf area (mm^2) in suboptimal phosphate conditions (Arabidopsis [3]; suboptimal phosphate): 151 mm^2
- Crown root number (Maize [4]; 19 days after sowing): 7
- Plant height (cm) (Maize [4]; 19 days after sowing): 26 cm
- Growth rate of leaf 4 (Maize [4]; first 4 days after emergence): 2.3 cm/day
- Plant height (cm) (Maize [5]; 4 weeks of growth): 62 cm
- Shoot weight (Maize [5]; 4 weeks of growth): 4.4 g
- Leaf 5 (cm) (Maize [5]; 26 days): 45 cm
- Primary root length (cm) (Arabidopsis [1]; [11]): 3.8 cm
- Shoot biomass (Arabidopsis [1]; [11]): 26 mg
- Primary root length (in % versus control) (Arabidopsis [1]): 211%
- primary root length relative to the control without compound (Arabidopsis [1]; result in words, 10 µM, 11-day-old Arabidopsis plants): almost double
- Biomass (Maize [6]; [12]): 29 g
- Plants with developed ears (%) (Maize [6]; [12]): 54%
- Sum of leaf length (cm) (Maize [6]; [12]): 5473 cm
- ear formation (Maize [6]; result in words, maize): stimulated
- Plant height (cm) (Rice [7]): 5.1 cm
- Plant height (cm) (Rice [8]): 15.8 cm
- effect on the shoot biomass, leaf area or plant height [9]: clear positive effect
- Biomass (Maize [10]): 31 g
- Plants with developed ears (%) (Maize [10]): 100%
- Sum of leaf length (cm) (Maize [10]): 3894 cm

Compound: CNC(=O)c1sc(N2CCOC(C)C2)nc1C (stereo not shown) [Compound 4.3]
- Primary root length (in % versus control) (Arabidopsis [1]): 122%

Compound: CCCCn1c(N)c(C(=O)NCCN2CCOCC2)c2nc3ccccc3nc21
- GUS (SPX1) stained area normalized to the number of seeds (pixels) (SPX1; Table 3): 20 pixels

Compound: COC(=O)c1ccc(N2CCOC(c3ccc(C)o3)C2)nc1C (stereo not shown)
- GUS (SPX1) stained area normalized to the number of seeds (pixels) (SPX1; Table 3): 24 pixels

Compound: CS(=O)(=O)CC1(CN2CCOC(c3ccc(F)cc3)C2)CC1 (stereo not shown)
- GUS (SPX1) stained area normalized to the number of seeds (pixels) (SPX1; Table 3): 0 pixels

Compound: Cc1ccc(S(=O)(=O)N2CCN(S(=O)(=O)N3CCOCC3)CC2)cc1
- GUS (SPX1) stained area normalized to the number of seeds (pixels) (SPX1; Table 3): 10 pixels

Compound: COc1ccc(-c2nnc(SCC(=O)N3CCOCC3)o2)cc1OC
- GUS (SPX1) stained area normalized to the number of seeds (pixels) (SPX1; Table 3): 32 pixels

Compound: CCC(=O)c1ccc(OC(=O)N2CCOCC2)cc1
- GUS (SPX1) stained area normalized to the number of seeds (pixels) (SPX1; Table 3): 0 pixels

Compound: CN(Cc1ccccc1N1CCOCC1)C(=O)C12CC3CC(CC(C3)C1)C2
- GUS (SPX1) stained area normalized to the number of seeds (pixels) (SPX1; Table 3): 3 pixels

Compound: CC1CN(Cc2nc(-c3ccc(Br)s3)no2)CCO1 (stereo not shown)
- GUS (SPX1) stained area normalized to the number of seeds (pixels) (SPX1; Table 3): 1 pixels

Compound: CC1(C)CN(Cc2ccc(-n3ccnc3)cc2)CCO1
- GUS (SPX1) stained area normalized to the number of seeds (pixels) (SPX1; Table 3): 16 pixels

Compound: CC1(C)C(NC(=O)Nc2cc(Cl)ccc2N2CCOCC2)C2CCOC21 (stereo not shown)
- GUS (SPX1) stained area normalized to the number of seeds (pixels) (SPX1; Table 3): 28 pixels
